# From patent publication US20040001845A1, “Cytotoxic T-cell epitopes of HIV-1 virus” (priority 2002, published 2004)
# System: PBMC (HIV-1-specific CD8+ T cells) of subject AC-06
# Test: IFN-γ Elispot assay of HIV-1-specific CD8+ T cell responses in subject AC-06
# Assay type: cell-based, human
# [1] = subject AC-06, 0 months after infection
# [2] = subject AC-06, 2 months after infection
# [3] = subject AC-06, 6 months after infection
# [4] = subject AC-06, 12 months after infection
# [5] = subject AC-06, 18 months after infection
# [6] = subject AC-06, 20 months after infection
# [7] = subject AC-06, 24 months after infection
# [8] = subject AC-06, 29.5 months after infection
# [9] = subject AC-06, 34 months after infection
Sequence,magnitude of HIV-1-specific CD8+ T cell responses at the single epitope level [1],magnitude of HIV-1-specific CD8+ T cell responses at the single epitope level [2],magnitude of HIV-1-specific CD8+ T cell responses at the single epitope level [3],magnitude of HIV-1-specific CD8+ T cell responses at the single epitope level [4],magnitude of HIV-1-specific CD8+ T cell responses at the single epitope level [5],magnitude of HIV-1-specific CD8+ T cell responses at the single epitope level [6],magnitude of HIV-1-specific CD8+ T cell responses at the single epitope level [7],magnitude of HIV-1-specific CD8+ T cell responses at the single epitope level [8],magnitude of HIV-1-specific CD8+ T cell responses at the single epitope level [9]
FPRIWLHGL [B7-FL9],0 SFC/Million PBMC,0 SFC/Million PBMC,0 SFC/Million PBMC,0 SFC/Million PBMC,0 SFC/Million PBMC,0 SFC/Million PBMC,210 SFC/Million PBMC,380 SFC/Million PBMC,960 SFC/Million PBMC
RLRDLLLIVTR [A3-RR11],0 SFC/Million PBMC,0 SFC/Million PBMC,0 SFC/Million PBMC,0 SFC/Million PBMC,0 SFC/Million PBMC,0 SFC/Million PBMC,260 SFC/Million PBMC,230 SFC/Million PBMC,320 SFC/Million PBMC
TPQDLNTML [B7-TL9],0 SFC/Million PBMC,0 SFC/Million PBMC,0 SFC/Million PBMC,0 SFC/Million PBMC,0 SFC/Million PBMC,0 SFC/Million PBMC,0 SFC/Million PBMC,740 SFC/Million PBMC,1300 SFC/Million PBMC
RPMTYKAAL [B7-RL9],0 SFC/Million PBMC,0 SFC/Million PBMC,0 SFC/Million PBMC,0 SFC/Million PBMC,0 SFC/Million PBMC,120 SFC/Million PBMC,180 SFC/Million PBMC,600 SFC/Million PBMC,360 SFC/Million PBMC
KTKPPLPSVKK [A3-KK11],0 SFC/Million PBMC,0 SFC/Million PBMC,0 SFC/Million PBMC,0 SFC/Million PBMC,0 SFC/Million PBMC,150 SFC/Million PBMC,340 SFC/Million PBMC,600 SFC/Million PBMC,1200 SFC/Million PBMC
GIPHPAGLK [A3-GK9],0 SFC/Million PBMC,0 SFC/Million PBMC,0 SFC/Million PBMC,0 SFC/Million PBMC,0 SFC/Million PBMC,0 SFC/Million PBMC,0 SFC/Million PBMC,240 SFC/Million PBMC,1800 SFC/Million PBMC
